Counter-ions that a name gives are not always drawn.
How the values were obtained:
[1] = molecular target: Wee1 kinase (Homo sapiens (Human), UniProt P30291); test: Wee1 Binding Assay (FRET); conditions: Wee1 kinase 2 nM, tracer 178 50 nM, 60 min at RT, read-out: Wee1 Enzymatic IC50
Method: Wee 1 kinase was determined by using Flurorescence Resonance Energy Transfer (FRET) assay. […] The plate was shaken for 30 seconds, incubated for 60 min at RT, and recorded on fluorescence plate reader.

[2] = tested on: SW480 cells; test: SW480 Cellular Proliferation Assay (CellTiter-Glo); format: cell-based; conditions: Homo sapiens, 96 h, 4 days
Method: (§1) Cells were treated with compounds diluted in DMSO and a 10 point 3-fold serial dilutions. Plates were placed in 37° C., 5% CO2 for to incubate for 4 days. Before they were developed by adding 100 μL of CellTiter-Glo reagent (Promega) to the assay plate, plates were shaken briefly for 2 mins and allowed to incubate at RT for 60 mins. The bottom of the plates was pasted with white back seal and luminescence was recorded with Enspire or Envision.

[3] = tested on: H23 cells; test: H23 Cellular Proliferation Assay (CellTiter-Glo); format: cell-based; conditions: Homo sapiens, NCI-H23, 96 h, 4 days
Method: as §1, with “a 9” for “a 10”, “point 5-fold” for “point 3-fold”, “CO2” for “CO2 for”, “for 10” for “for 60”, “mins. The plates are read with a M5e plate reader according to CellTiter-Glo protocol. The GraphPad Prism software was used to get IC50 values.” for “mins.”

Chain of Wee1 kinase (P30291 whole entry): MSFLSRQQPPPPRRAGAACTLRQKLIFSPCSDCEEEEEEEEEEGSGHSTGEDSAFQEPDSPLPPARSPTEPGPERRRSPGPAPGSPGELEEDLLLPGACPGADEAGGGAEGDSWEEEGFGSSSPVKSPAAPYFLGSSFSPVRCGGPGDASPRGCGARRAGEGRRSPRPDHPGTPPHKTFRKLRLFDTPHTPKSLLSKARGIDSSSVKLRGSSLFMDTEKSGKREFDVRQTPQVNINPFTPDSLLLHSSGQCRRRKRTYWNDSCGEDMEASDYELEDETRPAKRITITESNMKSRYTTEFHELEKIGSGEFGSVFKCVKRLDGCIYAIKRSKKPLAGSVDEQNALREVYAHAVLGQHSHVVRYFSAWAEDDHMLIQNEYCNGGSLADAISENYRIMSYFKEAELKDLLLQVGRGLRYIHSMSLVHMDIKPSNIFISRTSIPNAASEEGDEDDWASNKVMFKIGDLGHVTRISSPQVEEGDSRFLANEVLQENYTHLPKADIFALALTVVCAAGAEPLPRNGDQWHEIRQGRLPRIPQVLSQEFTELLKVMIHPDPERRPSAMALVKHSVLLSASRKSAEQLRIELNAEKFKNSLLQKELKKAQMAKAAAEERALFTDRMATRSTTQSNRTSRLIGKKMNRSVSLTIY

SMILES	IC50 [1] [nM]	IC50 [2] [nM]	IC50 [3] [nM]
C=CCn1c(=O)c2cnc(Nc3ccc4c(c3)CC(N(C)C)C4)nc2n1-c1cccc(C(C)(C)O)n1 (stereo not drawn) [Example 22, 2-allyl-6-((2-(dimethylamino)-2,3-dihydro-1H-inden-5-yl)amino)-1-(6-(2-hydroxypropan-2-yl)pyridin-2-yl)-1,2-dihydro-3H-pyrazolo[3,4-d]pyrimidin-3-one]	< 10	> 1000	100 to 1000
C=CCn1c(=O)c2cnc(Nc3ccc4c(c3)CNCC4)nc2n1-c1cccc(C(C)(C)O)n1 [Example 6, 2-Allyl-1-(6-(2-hydroxypropan-2-yl)pyridin-2-yl)-6-((1,2,3,4-tetrahydroisoquinolin-7-yl)amino)-1,2-dihydro-3H-pyrazolo[3,4-d]pyrimidin-3-one hydrochloride]	< 10	100 to 1000	100 to 1000
C=CCn1c(=O)c2cnc(Nc3ccc4c(c3)CNCC43CC3)nc2n1-c1cccc(C(C)(C)O)n1 [Example 2, 2-Alyl-6-((2′,3′-dihydro-1′H-spiro[cyclopropane-1,4′-isoquinolin]-7′-yl)amino)-1-(6-(2-hydroxypropan-2-yl)pyridin-2-yl)-1,2-dihydro-3H-pyrazolo[3,4-d]pyrimidin-3-one hydrochloride]	< 10	> 1000	< 100
C=CCn1c(=O)c2cnc(Nc3ccc4c(c3)C(=O)NCC4)nc2n1-c1cccc(C(C)(C)O)n1 [Example 19, 7-((2-Allyl-1-(6-(2-hydroxypropan-2-yl)pyridin-2-yl)-3-oxo-2,3-dihydro-1H-pyrazolo[3,4-d]pyrimidin-6-yl)amino)-3,4-dihydroisoquinolin-1(2H)-one]	< 10	> 1000	> 1000
C=CCn1c(=O)c2cnc(Nc3ccc4c(c3)CN(C)CC4)nc2n1-c1cccc(C(C)(C)O)n1 [Example 5, 2-Allyl-1-(6-(2-hydroxypropan-2-yl)pyridin-2-yl)-6-((2-methyl-1,2,3,4-tetrahydroisoquinolin-7-yl)amino)-1,2-dihydro-3H-pyrazolo[3,4-d]pyrimidin-3-one]	< 10	100 to 1000	< 100

Reference: patent US11124518B2, “L,2-dihydro-3H-pyrazolo[3,4-D]pyrimidin-3-one analogs” (Recurium IP Holdings, LLC, priority 2017, dated 2021)
